Source: patent EP0256125A1, “MEANS FOR PREVENTING MICROBIOLOGICAL OVERGROWING OF HARD SURFACE” (priority 1985, dated 1987)

Legend:
[1] = tested on: Cladosporium cladosporioides; test: Fungicidal activity, inhibition of mycelium growth on wort agar; assay type: cell-based; settings: Cladosporium cladosporioides, 120 h, read-out: Hemmung des Myzeliums am 5. Tag des Wachstums, Cladosporium cladosporioides
[2] = tested on: Cladosporium resinae; test: as above; assay type: cell-based; settings: Amorphotheca resinae, 120 h, read-out: Hemmung des Myzeliums am 5. Tag des Wachstums, Cladosporium resinae
[3] = tested on: Acremonium charticola; test: as above; assay type: cell-based; settings: Acremonium charticola, 120 h, read-out: Hemmung des Myzeliums am 5. Tag des Wachstums, Acremonium charticola
[4] = tested on: Penicillium chrysogenum; test: as above; assay type: cell-based
[5] = tested on: Oidium; test: as above; assay type: cell-based
[6] = tested on: Acremonium corvum; test: as above; assay type: cell-based; settings: 120 h, read-out: Hemmung des Myzeliums am 5. Tag des Wachstums, Acremonium corvum
[7] = tested on: Geotrichum candidum Link; test: as above; assay type: cell-based
[8] = tested on: Walrotiela subiculesa; test: as above; assay type: cell-based; settings: 120 h, read-out: Hemmung des Myzeliums am 5. Tag des Wachstums, Walrotiela subiculesa
[9] = tested on: Penicillium charlesii Smith; test: as above; assay type: cell-based; settings: Penicillium charlesii, 120 h, read-out: Hemmung des Myzeliums am 5. Tag des Wachstums, Penicillium charlesii Smith
[10] = tested on: Bakterien; test: Bactericidal activity, summary over all tested bacteria; assay type: cell-based
Procedure: (§1) Die bakterizide Aktivität des Kalium N-(vinyloxyethyl)-dithiocarbamats gegenüber den Bakterien, die von der Oberfläche von Wänden und Decken der Produktionsräume von Brauereien und Fabriken zur Herstellunq von alkoholfreien Getränken ausgeschieden wurden und die zu p.p.Bacillus, Micrococcus, Pseudomonas, Escherichiae gehören, wurde geprüft.
(§2) Es wurden wäßrige Lösungen des genannten Stoffes verschiedener Konzentration hergestellt, die so berechnet wurde, daß bei Einführung von 1 ml der Lösung in 25 ml geschmolzenen agarisierten Nährboden (45-50°C) die Konzentration des Stoffes im Nährboden von 0,003 bis 0,5% betrug. In 18 bis 24 Stunden wurde auf die Oberfläche des Nährbodens 0,1 ml der wäßrigen Suspension der eintägigen reinen Bakterienkulturen aufgetragen, die am Fleisch-Pepton-Agar gezüchtet wurden. Die Suspension wurde gleichmäßig verteilt. In Kontrollschalen wurden 0,1 ml Wasser auf der Oberfläche des Närhbodens verteilt.
(§3) Die Inkubation führte man bei einer Temperatur von 37°C während 5 Tage durch.
(§4) Die effektive Wirkung des Stoffes wurde nach dem Auftreten des Bakterienwachstums an der Oberfläche des Nährbodens bewertet.

[11] = tested on: p.Pseudomonas; test: Bactericidal activity, growth on agar medium; assay type: cell-based; settings: 37°C, 5 Tage
Procedure: as §1, §2, §3, §4

[12] = tested on: p.Bacillus; test: Bactericidal activity, growth on agar medium; assay type: cell-based; settings: 37°C, 5 Tage
Procedure: as §1, §2, §3, §4

[13] = tested on: p. Escherichiae; test: Bactericidal activity, growth on agar medium; assay type: cell-based; settings: 37°C, 5 Tage
Procedure: as §1, §2, §3, §4

[14] = tested on: p.Micrococcus; test: Bactericidal activity, growth on agar medium; assay type: cell-based; settings: 37°C, 5 Tage
Procedure: as §1, §2, §3, §4

[15] = Solubility in solvents (qualitative)
[16] = Storage stability (qualitative); assay type: physicochemical; settings: result in words
[17] = Acute toxicity in white mice; settings: mouse, in vivo, po
[18] = Konzentration des Stoffes 0,00075 %
[19] = Konzentration des Stoffes 0,0015 %
[20] = Konzentration des Stoffes 0,003 %
[21] = Konzentration des Stoffes 0,006 %
[22] = Konzentration des Stoffes 0,012 %

C=COCCNC(=S)[S-].[K+] [Kalium-N-(vinyloxyethyl)dithiocarbamat]
inhibition of growth [1, 18]: 100% | inhibition of growth at 0.0015 % [1, 19]: 100% | inhibition of growth at 0.003 % [1, 20]: 100% | inhibition of growth at 0.006 % [1, 21]: 100% | inhibition of growth at 0.012 % [1, 22]: 100% | inhibition of growth [2, 18]: 70% | inhibition of growth at 0.0015 % [2, 19]: 100% | inhibition of growth at 0.003 % [2, 20]: 100% | inhibition of growth at 0.006 % [2, 21]: 100% | inhibition of growth at 0.012 % [2, 22]: 100% | inhibition of growth [3, 18]: 90% | inhibition of growth at 0.0015 % [3, 19]: 100% | inhibition of growth at 0.003 % [3, 20]: 100% | inhibition of growth at 0.006 % [3, 21]: 100% | inhibition of growth at 0.012 % [3, 22]: 100% | Hemmung des Myzeliums am 5. Tag des Wachstums, Penicillium chrysogenum [4, 19]: 30% | Hemmung des Myzeliums am 5. Tag des Wachstums, Penicillium chrysogenum [4, 20]: 55% | inhibition of growth at 0.00075 % ([4]; Penicillium chrysogenum, 120 h, Konzentration des Stoffes 0,00075 %, read-out: Hemmung des Myzeliums am 5. Tag des Wachstums, Penicillium chrysogenum): 0% | inhibition of growth at 0.006 % ([4]; Penicillium chrysogenum, 120 h, Konzentration des Stoffes 0,006 %, read-out: Hemmung des Myzeliums am 5. Tag des Wachstums, Penicillium chrysogenum): 90% | inhibition of growth at 0.012 % ([4]; Penicillium chrysogenum, 120 h, Konzentration des Stoffes 0,012 %, read-out: Hemmung des Myzeliums am 5. Tag des Wachstums, Penicillium chrysogenum): 100% | inhibition of growth at 0.00075 % ([5]; 120 h, Konzentration des Stoffes 0,00075 %, read-out: Hemmung des Myzeliums am 5. Tag des Wachstums, Oidium): 40% | inhibition of growth at 0.003 % ([5]; 120 h, Konzentration des Stoffes 0,003 %, read-out: Hemmung des Myzeliums am 5. Tag des Wachstums, Oidium): 100% | inhibition of growth at 0.006 % ([5]; 120 h, Konzentration des Stoffes 0,006 %, read-out: Hemmung des Myzeliums am 5. Tag des Wachstums, Oidium): 100% | inhibition of growth at 0.012 % ([5]; 120 h, Konzentration des Stoffes 0,012 %, read-out: Hemmung des Myzeliums am 5. Tag des Wachstums, Oidium): 100% | Hemmung des Myzeliums am 5. Tag des Wachstums, Oidium [5, 19]: 96% | inhibition of growth [6, 18]: 94% | inhibition of growth at 0.0015 % [6, 19]: 100% | inhibition of growth at 0.003 % [6, 20]: 100% | inhibition of growth at 0.006 % [6, 21]: 100% | inhibition of growth at 0.012 % [6, 22]: 100% | inhibition of growth at 0.00075 % ([7]; Geotrichum candidum, 120 h, Konzentration des Stoffes 0,00075 %, read-out: Hemmung des Myzeliums am 5. Tag des Wachstums, Geotrichum candidum Link): 10% | inhibition of growth at 0.012 % ([7]; Geotrichum candidum, 120 h, Konzentration des Stoffes 0,012 %, read-out: Hemmung des Myzeliums am 5. Tag des Wachstums, Geotrichum candidum Link): 100% | Hemmung des Myzeliums am 5. Tag des Wachstums, Geotrichum candidum Link [7, 19]: 40% | Hemmung des Myzeliums am 5. Tag des Wachstums, Geotrichum candidum Link [7, 20]: 100% | Hemmung des Myzeliums am 5. Tag des Wachstums, Geotrichum candidum Link [7, 21]: 100% | inhibition of growth at 0.00075 % [8, 18]: 90% | inhibition of growth at 0.0015 % [8, 19]: 100% | inhibition of growth at 0.003 % [8, 20]: 100% | inhibition of growth at 0.006 % [8, 21]: 100% | inhibition of growth at 0.012 % [8, 22]: 100% | inhibition of growth [9, 18]: 5% | inhibition of growth at 0.0015 % [9, 19]: 30% | inhibition of growth at 0.003 % [9, 20]: 55% | inhibition of growth at 0.006 % [9, 21]: 90% | inhibition of growth at 0.012 % [9, 22]: 100% | Konzentration, die das Wachstum der Bakterien vollständig hemmte [10]: 0,05% | Konzentration der Salze der N-(vinyloxyethyl)dithiocarbaminsäure (100%), die das Wachstum der Bakterien am 5. Tag des Wachstums hemmen, p.Pseudomonas [11]: 0,05% | Konzentration der Salze der N-(vinyloxyethyl)dithiocarbaminsäure (100%), die das Wachstum der Bakterien am 5. Tag des Wachstums hemmen, p.Bacillus [12]: 0,05% | Konzentration der Salze der N-(vinyloxyethyl)dithiocarbaminsäure (100%), die das Wachstum der Bakterien am 5. Tag des Wachstums hemmen, p. Escherichiae [13]: 0,05% | Konzentration der Salze der N-(vinyloxyethyl)dithiocarbaminsäure (100%), die das Wachstum der Bakterien am 5. Tag des Wachstums hemmen, p.Micrococcus [14]: 0,05% | Löslichkeit im Alkohol ([15]; Alkohol (Ethylalkohol)): teilweise | Löslichkeit im Azeton ([15]; Azeton): teilweise | Löslichkeit im Diethylether ([15]; Diethylether): unlöslich | Löslichkeit in Wasser ([15]; Wasser): gut löslich | Lagerbeständigkeit [16]: lagerbeständig | LD50 [17]: 1400 ± 350 mg/kg
